Assay results taken from US12551482B2, “Aurora kinase inhibitors” (The Regents of the University of California, priority 2013, dated 2026).

Experiments:
KON = assay: Cancer cell line profiling, Genomics of Drug Sensitivity Project; conditions: read-out: CD532 EC50 (uM)
HMVII = assay: as above; conditions: read-out: CD532 EC50 (uM)
UACC-257 = assay: as above; conditions: Homo sapiens, UACC-257, read-out: CD532 EC50 (uM)
HTC-C3 = assay: as above; conditions: Homo sapiens, HTC-C3, read-out: CD532 EC50 (uM)
MYCN [1] = assay: MYCN protein by western blot in SK-N-BE(2) cells; format: cell-based
Method: (§1) Neuroblastoma tumor cell lines were obtained from the University of California San Francisco Cell Culture Facility (Kelly, SK-N-BE2, and SH-EP). SMS-KCN, SHEP MYCN^wt and MYCN^T58A/S62A cells were obtained. All cells were grown in RPMI with 10% FBS. Neuroblastoma cells were harvested and lysed with Cell Signaling Lysis buffer+1% SDS, sonicated and supernatants boiled in LDS sample buffer (Invitrogen). Western blots were performed as described previously (Chanthery et al., 2012), with primary antibodies to MYCN (ab24193, Abcam), Histone H3, P-Histone H3 (S10), Aurora A (Cell signaling), and GAPDH (Millipore). Western blot quantitation performed with ImageJ software.

NCI-H747 = assay: Cancer cell line profiling, Genomics of Drug Sensitivity Project; conditions: Homo sapiens, NCI-H747, read-out: CD532 EC50 (uM)
HO-1-u-1 = assay: as above; conditions: read-out: CD532 EC50 (uM)
MYCN [2] = assay: MYCN protein by immunoblot in SHEP cells expressing MYCN; format: cell-based
Method: as §1
MYCN is believed to be sequentially phosphorylated at S62/T58 before it is targeted for degradation by ubiquitination, and only phosphorylated, ubiquitinated MYCN is protected from degradation by Aurora A (Gustafson and Weiss, 2010; Otto et al., 2009).

[3] = system: SK-N-BE(2) MYCN-amplified neuroblastoma cells; assay: Viability at 72 hrs, CyQUANT assay; format: cell-based; conditions: Homo sapiens, SKNBE2, SK-N-BE(2) cells, FIG. 1E, read-out: cellular EC50 at 72 hrs
Method: For viability studies, neuroblastoma cells were plated in 96-well plates at a density of 1,000 cells/well for SHEP or 4,000 cells/well for Kelly or SK—N-BE2 cells, then incubated with indicated concentrations of drug for 72 hours at 37° C. Plates were frozen at −80° C. to induce cell lysis. CyQUANT reagent mixture (Invitrogen, C7026) was added to thawed plates, then fluorescence was measured. Alternatively, resazurin (Sigma-Aldrich, R7017) was added directly to wells following drug treatment then incubated for 4 hours at 37° C. prior to measuring fluorescence. Data was analyzed using GraphPad Prism software.

GT3TKB = assay: Cancer cell line profiling, Genomics of Drug Sensitivity Project; conditions: read-out: CD532 EC50 (uM)
ML-1 = assay: as above; conditions: ML1, read-out: CD532 EC50 (uM)
[4] = target: T1, c-MYC/Aurora A interaction (Homo sapiens, UniProt O14965); assay: Immunoprecipitation of c-MYC and immunoblotting for Aurora A; format: cell-based; conditions: RKO colon cancer cell line
T1 construct: endogenous in cells; host or cells: RKO colon cancer cell line
T1 sequence (O14965 whole entry): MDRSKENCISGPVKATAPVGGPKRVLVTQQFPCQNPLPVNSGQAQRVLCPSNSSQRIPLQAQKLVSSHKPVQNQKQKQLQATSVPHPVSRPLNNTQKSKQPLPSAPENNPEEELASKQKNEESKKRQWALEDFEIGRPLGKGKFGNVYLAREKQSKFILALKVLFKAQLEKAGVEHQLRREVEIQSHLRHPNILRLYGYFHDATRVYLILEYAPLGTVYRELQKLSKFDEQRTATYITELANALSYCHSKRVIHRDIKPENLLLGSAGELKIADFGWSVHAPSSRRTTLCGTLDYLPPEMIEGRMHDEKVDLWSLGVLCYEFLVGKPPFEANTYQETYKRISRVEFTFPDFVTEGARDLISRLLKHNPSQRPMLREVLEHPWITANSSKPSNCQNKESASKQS

[5] = system: Kelly MYCN-amplified neuroblastoma cells; assay: Viability at 72 hrs, CyQUANT assay; format: cell-based; conditions: FIG. 1F, read-out: cellular EC50 at 72 hrs
Method: Neuroblastoma cells were treated for the indicated time, trypsinized, washed, stained with Dylight 800 at 0.3 μg/mL (Pierce, 46421), fixed with 1.5% PFA, and permeabilized with 100% methanol. Cells were then stained with antibodies against p-MPM2 (Millipore, 16-155), p-pan-Aurora (Cell Signaling, 2914), MYCN (Thermo, PA5-17403), rabbit IgG (Invitrogen, A10542), or mouse IgG (BioLegend, 405307). Cells were stained with DAPI at 0.3 μg/mL (Invitrogen, D21490) and analyzed on the BD LSR II flow cytometer. For cell cycle analysis, cells were stimulated with EdU for 2 hours prior to harvest, then probed using the Click-iT EdU Flow Cytometry Assay Kit (Invitrogen, C10424). Cells were stained with propidium iodide (BD, 556547) and analyzed on the BD FACSCalibur flow cytometer. Data was gated using Cytobank. For viability studies, neuroblastoma cells were plated in 96-well plates at a density of 1,000 cells/well for SHEP or 4,000 cells/well for Kelly or SK—N-BE2 cells, then incubated with indicated concentrations of drug for 72 hours at 37° C. […] CyQUANT reagent mixture (Invitrogen, C7026) was added to thawed plates, then fluorescence was measured. Alternatively, resazurin (Sigma-Aldrich, R7017) was added directly to wells following drug treatment then incubated for 4 hours at 37° C. prior to measuring fluorescence. Data was analyzed using GraphPad Prism software.

SNU-423 = assay: Cancer cell line profiling, Genomics of Drug Sensitivity Project; conditions: Homo sapiens, SNU-423, read-out: CD532 EC50 (uM)
MYCN [6] = assay: Dose response immunoblot for MYCN in MYCN-amplified neuroblastoma cell lines (SK-N-BE(2), SMS-KCN, Kelly); format: cell-based; conditions: multiple cell lines, 24 hrs (FIGS. 1D and 7)
Method: as §1

A431 = assay: Cancer cell line profiling, Genomics of Drug Sensitivity Project; conditions: Homo sapiens, A-431, read-out: CD532 EC50 (uM)
HO-1-N-1 = assay: as above; conditions: read-out: CD532 EC50 (uM)
NB13 = assay: as above; conditions: read-out: CD532 EC50 (uM)
BICR 78 = assay: as above; conditions: read-out: CD532 EC50 (uM)
FU97 = assay: as above; conditions: Fu97, read-out: CD532 EC50 (uM)
5637 = assay: as above; conditions: read-out: CD532 EC50 (uM)
CP50-MEL-B = assay: as above; conditions: read-out: CD532 EC50 (uM)

O=C(Nc1ccc(Nc2nccc(Nc3cc(C4CCCC4)[nH]n3)n2)cc1)Nc1cccc(C(F)(F)F)c1 [CD532, 1-(4-((4-((5-cyclopentyl-1H-pyrazol-3-yl)amino)pyrimidin-2-yl)amino)phenyl)-3-(3-(trifluoromethyl)phenyl)urea]
EC50 (KON): 4.15 µM | EC50 (HMVII): 0.746 µM | EC50 (UACC-257): 0.607 µM | EC50 (HTC-C3): 0.915 µM | time dependence of MYCN protein loss (MYCN [1]; 1 μM, time course (FIG. 12A)): clear and time-dependent loss of MYCN protein | IC50 (MYCN [1]; FIG. 1D, read-out: IC50 for on-target MYCN knockdown): ~250 nM | EC50 (NCI-H747): 0.665 µM | EC50 (HO-1-u-1): 9.81 µM | wild-type MYCN protein (MYCN [2]; SHEP cells expressing MYCNWT, 24 hrs, increasing concentrations (FIG. 12C)): dose-dependent decrease in wild-type MYCN protein | MYCNT58A/S62A protein (MYCN [2]; SHEP cells expressing non-phosphorylatable MYCNT58A/S62A, 24 hrs (FIG. 12C)): partially protected from degradation | EC50 [3]: 223 nM | EC50 (GT3TKB): 1.05 µM | EC50 (ML-1): 1.32 µM | c-MYC association with Aurora A [4]: reduces this interaction | EC50 [5]: 147 nM | EC50 (SNU-423): 0.753 µM | MYCN protein, dose response (MYCN [6]): dose dependent loss of MYCN protein | EC50 (A431): 0.364 µM | EC50 (HO-1-N-1): 1.67 µM | EC50 (NB13): 1.02 µM | EC50 (BICR 78): 12.2 µM | EC50 (FU97): 0.545 µM | EC50 5637: 0.49 µM | EC50 (CP50-MEL-B): 0.323 µM
